From US20140242093A1, “METHODS AND COMPOSITIONS FOR MODULATING THE INNATE IMMUNE RESPONSE AND/OR MYOGENESIS IN A MAMMALIAN SUBJECT” (FRED HUTCHINSON CANCER RESEARCH CENTER, priority 2011, published 2014)

Test system: control human primary myoblasts
Assay: Expression microarray of primary myoblasts transduced with lentivirus carrying DUX4-fl, DUX4-s or GFP
Description: Primary human myoblasts were collected and cultured as previously described (Snider et al., 2010). Primary myoblasts were maintained at or below 70% confluency for proliferation. For differentiation, cells were allowed to reach 95-100% confluency in growth medium. Once confluency was reached, the cells were changed to differentiation medium (F10 media supplemented with 1% horse serum, 10 μg/mL insulin, and 10 μg/mL transferrin, penicillin/streptomycin) and maintained for 4 days. Human RD cells were grown in DMEM in 10% bovine calf serum (Hyclone) and penicillin/streptomycin. The primary myoblasts were transduced with lentivirus carrying DUX-fl, DUX4- or GFP (MOI=15).
Expression microarrays were performed on the transduced cells at 24 hours after transduction as follows. […] Samples were analyzed by Illumina Human Whole Genome microarrays. Probe intensities were corrected, normalized, and summarized by the Lumi package of Bioconductor (Du et al., 2008). Differentially expressed genes were identified by the LIMMA package of Bioconductor (Wettenhall and Smyth, 2004). Gene set enrichment analysis (GSEA) was performed using the Bioconductor GOstats package (Falcon and Gentleman, 2007).

Substance: DUX4-fl: full-length DUX4 protein (SEQ ID NO:110), expressed from lentiviral or pCS2 vectors or in vitro translated
- full_fc PRAMEF13 (log2 fc vs lenti-GFP, 24 h): 7.422
- full_fc PRAMEF15 (log2 fc vs lenti-GFP, 24 h): 7
- full_fc PRAMEF17 (log2 fc vs lenti-GFP, 24 h): 4.223
- full_fc PRAMEF20 (log2 fc vs lenti-GFP, 24 h): 4.795
- full_fc RFPL1 (log2 fc vs lenti-GFP, 24 h): 6.264
- full_fc RFPL1S (log2 fc vs lenti-GFP, 24 h): 8.396
- full_fc RFPL2 (log2 fc vs lenti-GFP, 24 h): 7.293
- full_fc RFPL3 (log2 fc vs lenti-GFP, 24 h): 8.144
- full_fc RFPL4A (log2 fc vs lenti-GFP, 24 h): 4.348
- full_fc RFPL4B (log2 fc vs lenti-GFP, 24 h): 8.34
- full_fc RN5S9 (log2 fc vs lenti-GFP, 24 h): 4.191
- full_fc SFRS2B (log2 fc vs lenti-GFP, 24 h): 4.215
- full_fc SLC34A2 (log2 fc vs lenti-GFP, 24 h): 5.514
- full_fc SPRYD5 (log2 fc vs lenti-GFP, 24 h): 8.045
- full_fc THOC4 (log2 fc vs lenti-GFP, 24 h): 4.035
- full_fc TPRX1 (log2 fc vs lenti-GFP, 24 h): 4.483
- full_fc TRIM43 (log2 fc vs lenti-GFP, 24 h): 5.806
- full_fc TRIM48 (log2 fc vs lenti-GFP, 24 h): 7.88
- full_fc TRIM49 (log2 fc vs lenti-GFP, 24 h): 6.551
- full_fc TRIM53 (log2 fc vs lenti-GFP, 24 h): 4.778
- full_fc TRIM64 (log2 fc vs lenti-GFP, 24 h): 4.943
- full_fc ZNF217 (log2 fc vs lenti-GFP, 24 h): 4.114
- full_fc ZNF296 (log2 fc vs lenti-GFP, 24 h): 5.536
- full_fc ZNF705A (log2 fc vs lenti-GFP, 24 h): 6.832
- full_fc ZSCAN4 (log2 fc vs lenti-GFP, 24 h): 8.322
- number of genes increased 32-fold or more (log 2fc≧5): 72 genes
- Log2 Fc AMACR (vs lenti-GFP, 24 h): 2.7 log2
- Log2 Fc ARIH1 (vs lenti-GFP, 24 h): 2.2 log2
- Log2 Fc ARS2 (vs lenti-GFP, 24 h): 2.6 log2
- Log2 Fc CBARA1 (vs lenti-GFP, 24 h): 2.1 log2
- Log2 Fc CD24 (vs lenti-GFP, 24 h): 2.6 log2
- Log2 Fc CSAG3 (vs lenti-GFP, 24 h): 5.9 log2
- Log2 Fc CSE1L (vs lenti-GFP, 24 h): 2.9 log2
- Log2 Fc CWC15 (vs lenti-GFP, 24 h): 2.6 log2
- Log2 Fc CXADR (vs lenti-GFP, 24 h): 2.5 log2
- Log2 Fc CXCR4 (vs lenti-GFP, 24 h): 2.0 log2
- Log2 Fc DBR1 (vs lenti-GFP, 24 h): 3.4 log2
- Log2 Fc DEFB103B (vs lenti-GFP, 24 h): 6.4 log2
- Log2 Fc FBXO33 (vs lenti-GFP, 24 h): 3.2 log2
- Log2 Fc FGFR3 (vs lenti-GFP, 24 h): 3.1 log2
- Log2 Fc FLJ45337 (vs lenti-GFP, 24 h): 3.7 log2
- Log2 Fc GTF2F1 (vs lenti-GFP, 24 h): 3.2 log2
- Log2 Fc HNRNPCL1 (vs lenti-GFP, 24 h): 3.5 log2
- Log2 Fc HOXB2 (vs lenti-GFP, 24 h): 2.2 log2
- Log2 Fc HSPA2 (vs lenti-GFP, 24 h): 3.7 log2
- Log2 Fc ID2 (vs lenti-GFP, 24 h): 2.3 log2
- Log2 Fc IFRD1 (vs lenti-GFP, 24 h): 3.0 log2
- Log2 Fc JUP (vs lenti-GFP, 24 h): 3.2 log2
- Log2 Fc KHDC1L (vs lenti-GFP, 24 h): 8.0 log2
- Log2 Fc MBD3L2 (vs lenti-GFP, 24 h): 7.6 log2
- Log2 Fc MED26 (vs lenti-GFP, 24 h): 2.1 log2
- Log2 Fc MGC10997 (vs lenti-GFP, 24 h): 2.4 log2
- Log2 Fc PABPN1 (vs lenti-GFP, 24 h): 2.6 log2
- Log2 Fc PELI1 (vs lenti-GFP, 24 h): 2.9 log2
- Log2 Fc PNMA6B (vs lenti-GFP, 24 h): 3.6 log2
- Log2 Fc PRAMEF1 (vs lenti-GFP, 24 h): 8.1 log2
- Log2 Fc PVRL3 (vs lenti-GFP, 24 h): 2.2 log2
- Log2 Fc RMRP (vs lenti-GFP, 24 h): 2.3 log2
- Log2 Fc RNGTT (vs lenti-GFP, 24 h): 2.0 log2
- Log2 Fc RPPH1 (vs lenti-GFP, 24 h): 2.0 log2
- Log2 Fc RRN3 (vs lenti-GFP, 24 h): 2.1 log2
- Log2 Fc SFRS2B (vs lenti-GFP, 24 h): 4.2 log2
- Log2 Fc SFRS17A (vs lenti-GFP, 24 h): 2.5 log2
- Log2 Fc SIAH1 (vs lenti-GFP, 24 h): 3.7 log2
- Log2 Fc SLC2A14 (vs lenti-GFP, 24 h): 2.4 log2
- Log2 Fc SLC34A2 (vs lenti-GFP, 24 h): 5.5 log2
- Log2 Fc SNIP1 (vs lenti-GFP, 24 h): 2.1 log2
- Log2 Fc SON (vs lenti-GFP, 24 h): 2.1 log2
- Log2 Fc SPRYD5 (vs lenti-GFP, 24 h): 8.0 log2
- Log2 Fc SPTY2D1 (vs lenti-GFP, 24 h): 3.3 log2
- Log2 Fc TFIP11 (vs lenti-GFP, 24 h): 3.2 log2
- Log2 Fc THOC4 (vs lenti-GFP, 24 h): 4.0 log2
- Log2 Fc TPRX1 (vs lenti-GFP, 24 h): 4.5 log2
- Log2 Fc TRIM23 (vs lenti-GFP, 24 h): 2.2 log2
- Log2 Fc TRIM43 (vs lenti-GFP, 24 h): 5.8 log2
- Log2 Fc USP29 (vs lenti-GFP, 24 h): 2.6 log2
- Log2 Fc ZNF217 (vs lenti-GFP, 24 h): 4.1 log2
- Log2 Fc ZNF705A (vs lenti-GFP, 24 h): 6.8 log2
- Log2 Fc ZNHIT6 (vs lenti-GFP, 24 h): 3.5 log2
- Log2 Fc ZSCAN2 (vs lenti-GFP, 24 h): 2.2 log2
- Log2 Fc ZSCAN4 (vs lenti-GFP, 24 h): 8.3 log2
